We go through eleven molecules from patent US20070049564A1 (Wyeth, priority 2005, published 2007).

The subject of one experiment is E. coli. The experiment in a line: Range of MIC for E. coli strains. The conditions noted are these: Escherichia coli.
Another experiment has as its system Staph. The experiment in a line: Range of MIC for Staph. strains, including MRSA. As to conditions: Staphylococcus aureus, MRSA.
[1] abbreviates: 20 h, read-out: Range of MIC, E. coli (Mouse Serum).
Setting [2] is: read-out: Range of MIC, E. coli (Water).
Setting [3] is: read-out: Range of MIC, Staph (Mouse Serum).
Setting [4] is: read-out: Range of MIC, Staph (Water).

A word on the MIC: it is the smallest concentration in the dilution series that meets the test's criterion for growth inhibition.

In brackets after ≈: the same amount, converted by molar mass. Like-named read-outs stand apart in the source and are kept apart here.

Method for Staph.: Antimicrobial susceptibility testing. The in vitro activities of the antibiotics are determined by the broth microdilution method as recommended by the National Committee for Clinical Laboratory Standards (NCCLS) (1). Mueller-Hinton II broth (MHBII)(BBL Cockeysville, Md.) is the medium employed in the testing procedures. Microtiter plates containing serial dilutions of each antimicrobial agent are inoculated with each organism to yield the appropriate density (10^5 CFU/ml) in a 100 μl final volume. The plates are incubated for 18-22 hours at 35° C. in ambient air.
Representative compounds were first incubated in mouse serum for an hour prior to the in vitro testing against a panel of selected gram-positive and gram-negative bacteria strains. All compounds were also pre-incubated in water for an hour prior to testing as control. Representative compounds of Formula I were incubated in human serum prior to MIC determination.

For `CN(C)c1cc(NC(=O)CN(C(=O)OCOC(=O)COc2ccc(F)cc2)C(C)(C)C)c(O)c2c1C[C@H]1C[C@H]3[C@H](N(C)C)C(O)=C(C(N)=O)C(=O)[C@@]3(O)C(O)=C1C2=O` [Example 64], the MIC was < 0.12 µg/mL with E. coli (setting [1]), 0.12 to 1 µg/mL (≈ 0.148 to 1.23 µM) in the experiment on E. coli (setting [2]), 0.12 to 0.25 µg/mL (≈ 0.148 to 0.308 µM) in the experiment with Staph. (setting [3]) and 0.12 to 0.5 µg/mL (≈ 0.148 to 0.616 µM) in the experiment on Staph. (setting [4]).

Regarding `CN(C)c1cc(NC(=O)CN(C(=O)OCOC(=O)CC2CCCCC2)C(C)(C)C)c(O)c2c1C[C@H]1C[C@H]3[C@H](N(C)C)C(O)=C(C(N)=O)C(=O)[C@@]3(O)C(O)=C1C2=O` [Example 65, ({[(2-{[(5aR,6aS,7S,10aS)-9-(aminocarbonyl)-4,7-bis(dimethylamino)-1,8,10a,11-tetrahydroxy-10,12-dioxo-5,5a,6,6a,7,10,10a,12-octahydrotetracen-2-yl]amino}-2-oxoethyl)(tert-butyl)amino]carbonyl}oxy)methyl cyclohexylacetate], the minimum inhibitory concentration (MIC) with E. coli (setting [1]) is 0.12 to 0.5 µg/mL (≈ 0.153 to 0.638 µM); with E. coli (setting [2]), 16 µg/mL (≈ 20.4 µM); in the experiment on Staph. (setting [3]), 0.12 to 0.5 µg/mL (≈ 0.153 to 0.638 µM); in the experiment on Staph. (setting [4]), 0.12 to 1 µg/mL (≈ 0.153 to 1.28 µM).

Consider `Cc1cccc(C)c1C(=O)OCOC(=O)N(CC(=O)Nc1cc(N(C)C)c2c(c1O)C(=O)C1=C(O)[C@]3(O)C(=O)C(C(N)=O)=C(O)[C@@H](N(C)C)[C@@H]3C[C@@H]1C2)C(C)(C)C` [Example 66, ({[(2-{[(5aR,6aS,7S,10aS)-9-(aminocarbonyl)-4,7-bis(dimethylamino)-1,8,10a,11-tetrahydroxy-10,12-dioxo-5,5a,6,6a,7,10,10a,12-octahydrotetracen-2-yl]amino}-2-oxoethyl)(tert-butyl)amino]carbonyl}oxy)methyl 2,6-dimethylbenzoate], for which the minimum inhibitory concentration (MIC) is > 128 µg/mL with E. coli (setting [1]), > 128 µg/mL with E. coli (setting [2]), 1 to 16 µg/mL (≈ 1.26 to 20.2 µM) with Staph. (setting [3]) and 2 to 16 µg/mL (≈ 2.53 to 20.2 µM) with Staph. (setting [4]).

Consider `CN(C)c1cc(NC(=O)CN(C(=O)OCOC(=O)Cc2ccccc2)C(C)(C)C)c(O)c2c1C[C@H]1C[C@H]3[C@H](N(C)C)C(O)=C(C(N)=O)C(=O)[C@@]3(O)C(O)=C1C2=O` [Example 67, ({[(2-{[(5aR,6aS,7S,10aS)-9-(aminocarbonyl)-4,7-bis(dimethylamino)-1,8,10a,11-tetrahydroxy-10,12-dioxo-5,5a,6,6a,7,10,10a,12-octahydrotetracen-2-yl]amino}-2-oxoethyl)(tert-butyl)amino]carbonyl}oxy)methyl phenylacetate], for which the MIC in the experiment with E. coli (setting [1]) is 0.12 to 0.25 µg/mL (≈ 0.154 to 0.321 µM); in the experiment with E. coli (setting [2]), 8 to 32 µg/mL (≈ 10.3 to 41.1 µM); in the experiment with Staph. (setting [3]) it was 0.12 to 0.25 µg/mL (≈ 0.154 to 0.321 µM); in the experiment on Staph. (setting [4]) it was 0.12 to 1 µg/mL (≈ 0.154 to 1.29 µM).

Take `CN(C)c1cc(NC(=O)CN(C(=O)OCOC(=O)C(C)(C)C)C(C)(C)C)c(O)c2c1C[C@H]1C[C@H]3[C@H](N(C)C)C(O)=C(C(N)=O)C(=O)[C@@]3(O)C(O)=C1C2=O` [Example 68, ({[(2-{[(5aR,6aS,7S,10aS)-9-(aminocarbonyl)-4,7-bis(dimethylamino)-1,8,10a,11-tetrahydroxy-10,12-dioxo-5,5a,6,6a,7,10,10a,12-octahydrotetracen-2-yl]amino}-2-oxoethyl)(tert-butyl)amino]carbonyl}oxy)methyl pivalate]: the MIC in the experiment with E. coli (setting [1]) was in the range of 0.12 to 1 µg/mL (≈ 0.161 to 1.34 µM); in the experiment on E. coli (setting [2]) it was 2 to 8 µg/mL (≈ 2.69 to 10.8 µM); with Staph. (setting [3]), 0.12 to 0.25 µg/mL (≈ 0.161 to 0.336 µM); in the experiment with Staph. (setting [4]) it was 0.12 to 1 µg/mL (≈ 0.161 to 1.34 µM).

With `CN(C)c1cc(NC(=O)CN(C(=O)OCOC(=O)c2cc3ccccc3o2)C(C)(C)C)c(O)c2c1C[C@H]1C[C@H]3[C@H](N(C)C)C(O)=C(C(N)=O)C(=O)[C@@]3(O)C(O)=C1C2=O` [Example 69, ({[(2-{[(5aR,6aS,7S,10aS)-9-(aminocarbonyl)-4,7-bis(dimethylamino)-1,8,10a,11-tetrahydroxy-10,12-dioxo-5,5a,6,6a,7,10,10a,12-octahydrotetracen-2-yl]amino}-2-oxoethyl)(tert-butyl)amino]carbonyl}oxy)methyl 1-benzofuran-2-carboxylate], the MIC with E. coli (setting [1]) was 0.12 to 0.5 µg/mL (≈ 0.149 to 0.622 µM); in the experiment with E. coli (setting [2]), 8 to 64 µg/mL (≈ 9.95 to 79.6 µM); with Staph. (setting [3]), 0.12 to 0.25 µg/mL (≈ 0.149 to 0.311 µM); in the experiment with Staph. (setting [4]), 0.12 to 1 µg/mL (≈ 0.149 to 1.24 µM).

With `CN(C)c1cc(NC(=O)CN(C(=O)OCOC(=O)c2cccn2C)C(C)(C)C)c(O)c2c1C[C@H]1C[C@H]3[C@H](N(C)C)C(O)=C(C(N)=O)C(=O)[C@@]3(O)C(O)=C1C2=O` [Example 70], the MIC in the experiment on E. coli (setting [1]) is 4 to 8 µg/mL (≈ 5.22 to 10.4 µM); with E. coli (setting [2]), > 64 µg/mL; in the experiment on Staph. (setting [3]), 1 to 4 µg/mL (≈ 1.3 to 5.22 µM); with Staph. (setting [4]), 2 to 4 µg/mL (≈ 2.61 to 5.22 µM).

Turning to `COc1ccc(C(=O)OCOC(=O)N(CC(=O)Nc2cc(N(C)C)c3c(c2O)C(=O)C2=C(O)[C@]4(O)C(=O)C(C(N)=O)=C(O)[C@@H](N(C)C)[C@@H]4C[C@@H]2C3)C(C)(C)C)cc1` [Example 72, ({[(2-{[(5aR,6aS,7S,10aS)-9-(aminocarbonyl)-4,7-bis(dimethylamino)-1,8,10a,11-tetrahydroxy-10,12-dioxo-5,5a,6,6a,7,10,10a,12-octahydrotetracen-2-yl]amino}-2-oxoethyl)(tert-butyl)amino]carbonyl}oxy)methyl 4-methoxybenzoate], the MIC is 0.5 to 1 µg/mL (≈ 0.63 to 1.26 µM) with E. coli (setting [1]), > 64 µg/mL in the experiment with E. coli (setting [2]), 0.5 to 1 µg/mL (≈ 0.63 to 1.26 µM) in the experiment on Staph. (setting [3]) and 4 to 8 µg/mL (≈ 5.04 to 10.1 µM) with Staph. (setting [4]).

With `CN(C)c1cc(NC(=O)CN(C(=O)OCOC(=O)c2cc3ccccc3[nH]2)C(C)(C)C)c(O)c2c1C[C@H]1C[C@H]3[C@H](N(C)C)C(O)=C(C(N)=O)C(=O)[C@@]3(O)C(O)=C1C2=O` [Example 73, ({[(2-{[(5aR,6aS,7S,10aS)-9-(aminocarbonyl)-4,7-bis(dimethylamino)-1,8,10a,11-tetrahydroxy-10,12-dioxo-5,5a,6,6a,7,10,10a,12-octahydrotetracen-2-yl]amino}-2-oxoethyl)(tert-butyl)amino]carbonyl}oxy)methyl 1H-indole-2-carboxylate], the MIC with E. coli (setting [1]) was 0.5 to 1 µg/mL (≈ 0.623 to 1.25 µM); in the experiment with E. coli (setting [2]) it was > 64 µg/mL; in the experiment on Staph. (setting [3]) it was 1 to 4 µg/mL (≈ 1.25 to 4.98 µM); in the experiment with Staph. (setting [4]), 4 to 8 µg/mL (≈ 4.98 to 9.96 µM).

Take `CN(C)c1cc(NC(=O)OCOC(=O)c2cccs2)c(O)c2c1C[C@H]1C[C@H]3[C@H](N(C)C)C(O)=C(C(N)=O)C(=O)[C@@]3(O)C(O)=C1C2=O` [Example 75, [({[(5aR,6aS,7S,10aS)-9-(aminocarbonyl)-4,7-bis(dimethylamino)-1,8,10a,11-tetrahydroxy-10,12-dioxo-5,5a,6,6a,7,10,10a,12-octahydrotetracen-2-yl]amino}carbonyl)oxy]methyl thiophene-2-carboxylate]: the MIC in the experiment with E. coli (setting [2]) is > 64 µg/mL; in the experiment on Staph. (setting [3]), 8 to 16 µg/mL (≈ 12.2 to 24.4 µM); with Staph. (setting [4]), 16 to 32 µg/mL (≈ 24.4 to 48.7 µM).

For `CCC(C)(C)C(=O)OCOC(=O)Nc1cc(N(C)C)c2c(c1O)C(=O)C1=C(O)[C@]3(O)C(=O)C(C(N)=O)=C(O)[C@@H](N(C)C)[C@@H]3C[C@@H]1C2` [Example 80, [({[(5aR,6aS,7S,10aS)-9-(aminocarbonyl)-4,7-bis(dimethylamino)-1,8,10a,11-tetrahydroxy-10,12-dioxo-5,5a,6,6a,7,10,10a,12-octahydrotetracen-2-yl]amino}carbonyl)oxy]methyl 2,2-dimethylbutanoate], the MIC was 4 to 8 µg/mL (≈ 6.2 to 12.4 µM) in the experiment with Staph. (setting [3]) and 4 to 16 µg/mL (≈ 6.2 to 24.8 µM) with Staph. (setting [4]).
